The results in this text go back to patent publication US12479830B2, “Homopiperazinyl and homopiperidinyl quinazolin-4(3H)-one derivatives having multimodal activity against pain” (ESTEVE PHARMACEUTICALS, S.A., priority 2019, dated 2025).

The Ki is a dissociation constant, usually derived from enzyme kinetics or from competition with a known ligand.

The target in assay [1] is Human α2δ-1 subunit of Cav2.2 calcium channel (Homo sapiens, UniProt P54289). As to the kind of experiment: Human α2δ-1 subunit of Cav2.2 calcium channel assay ([3H]-gabapentin binding). The settings on record: binding to the α2δ-1 subunit of voltage-gated calcium channels, expressed as Ki class; + also covers inhibition between 1% and 50%. How it is done:
Human α2δ-1 Subunit of Cav2.2 Calcium Channel Assay
Human α2δ-1 enriched membranes (2.5 μg) were incubated with 15 nM of radiolabeled [^3H]-Gabapentin in assay buffer containing Hepes-KOH 10 mM. pH 7.4. NSB (non specific binding) was measured by adding 10 μM pregabalin. The binding of the test compound was measured at either one concentration (% inhibition at 1 or 10 μM) or five different concentrations to determine affinity values (Ki). After 60 min incubation at 27° C., binding reaction was terminated by filtering through Multiscreen GF/C (Millipore) presoaked in 0.5% polyethyleneimine in Vacuum Manifold Station, followed by 3 washes with ice-cold filtration buffer containing 50 mM Tris-HCl, pH 7.4. Filter plates were dried at 60° C. for 1 h and 30 μL of scintillation cocktail were added to each well before radioactivity reading. Readings were performed in a Trilux 1450 Microbeta radioactive counter (Perkin Elmer).

Another assay concerns the target T1, Human σ1 receptor (Homo sapiens, UniProt Q99720).
T1 construct: expressed in transfected cells; host or cells: HEK-293
The experiment in a line: Human σ1 receptor radioligand assay ([3H](+)-pentazocine binding). The settings on record: binding to the σ1 receptor, expressed as Ki class; + also covers inhibition between 1% and 50%. How it is done: Human σ1 Receptor Radioligand Assay
Transfected HEK-293 membranes (7 μg) were incubated with 5 nM of [^3H](+)-pentazocine in assay buffer containing Tris-HCl 50 mM at pH 8. NBS (non-specific binding) was measured by adding 10 μM haloperidol. The binding of the test compound was measured at either one concentration (% inhibition at 1 or 10 μM) or five different concentrations to determine affinity values (Ki). Plates were incubated at 37° C. for 120 minutes. After the incubation period, the reaction mix was then transferred to MultiScreen HTS, FC plates (Millipore), filtered and plates were washed 3 times with ice-cold 10 mM Tris-HCL (pH7.4). Filters were dried and counted at approximately 40% efficiency in a MicroBeta scintillation counter (Perkin-Elmer) using EcoScint liquid scintillation cocktail.

T1 sequence (Q99720 whole entry): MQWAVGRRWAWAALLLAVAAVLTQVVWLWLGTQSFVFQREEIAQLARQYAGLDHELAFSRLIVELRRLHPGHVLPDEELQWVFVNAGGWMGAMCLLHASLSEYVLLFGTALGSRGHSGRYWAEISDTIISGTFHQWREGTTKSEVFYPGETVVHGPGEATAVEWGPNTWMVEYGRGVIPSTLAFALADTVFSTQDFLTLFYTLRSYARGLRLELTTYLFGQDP
Human α2δ-1 subunit of Cav2.2 calcium channel, sequence (P54289 25-1103): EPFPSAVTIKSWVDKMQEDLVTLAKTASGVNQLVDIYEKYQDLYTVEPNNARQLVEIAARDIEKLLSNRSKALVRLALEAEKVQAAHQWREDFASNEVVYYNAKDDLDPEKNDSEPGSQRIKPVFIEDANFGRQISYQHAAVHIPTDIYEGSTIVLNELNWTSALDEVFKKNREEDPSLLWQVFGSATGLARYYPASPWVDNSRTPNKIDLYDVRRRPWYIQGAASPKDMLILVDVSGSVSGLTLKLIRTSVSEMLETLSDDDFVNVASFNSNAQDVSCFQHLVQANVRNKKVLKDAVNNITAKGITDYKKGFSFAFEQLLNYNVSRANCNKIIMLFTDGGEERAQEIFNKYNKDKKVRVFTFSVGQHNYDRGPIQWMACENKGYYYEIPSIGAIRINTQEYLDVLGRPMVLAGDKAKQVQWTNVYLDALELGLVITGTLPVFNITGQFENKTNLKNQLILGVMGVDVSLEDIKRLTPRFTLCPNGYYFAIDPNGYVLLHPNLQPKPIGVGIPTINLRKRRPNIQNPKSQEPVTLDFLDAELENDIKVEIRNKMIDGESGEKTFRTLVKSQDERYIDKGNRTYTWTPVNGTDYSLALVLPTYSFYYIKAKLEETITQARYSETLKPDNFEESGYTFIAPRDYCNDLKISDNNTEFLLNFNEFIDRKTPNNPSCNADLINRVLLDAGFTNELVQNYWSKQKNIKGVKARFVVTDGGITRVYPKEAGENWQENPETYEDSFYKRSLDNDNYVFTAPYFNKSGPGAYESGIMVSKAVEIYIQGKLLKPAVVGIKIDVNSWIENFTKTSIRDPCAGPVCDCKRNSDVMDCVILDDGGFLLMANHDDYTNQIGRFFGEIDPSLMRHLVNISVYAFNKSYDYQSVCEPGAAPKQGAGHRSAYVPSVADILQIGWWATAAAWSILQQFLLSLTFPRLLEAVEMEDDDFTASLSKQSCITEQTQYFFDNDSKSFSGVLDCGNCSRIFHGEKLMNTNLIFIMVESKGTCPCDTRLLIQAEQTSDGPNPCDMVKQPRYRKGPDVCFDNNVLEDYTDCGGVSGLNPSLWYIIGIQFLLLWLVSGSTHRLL

For the compound `CCCC(c1nc2cc(F)c(Br)cc2c(=O)n1CCC)N1CCCN(C)CC1` (centres unmarked) [Example 26, 6-bromo-7-fluoro-2-(1-(4-methyl-1,4-diazepan-1-yl)butyl)-3-propylquinazolin-4(3H)-one], the Ki (in assay [1]; on Human σ1 receptor) was less than 500 nM throughout.
Take `CCCC(c1nc2cc(F)c(Br)cc2c(=O)n1CC)N1CCCNCC1` (centres unmarked) [Example 27, 2-(1-(1,4-diazepan-1-yl)butyl)-6-bromo-3-ethyl-7-fluoroquinazolin-4(3H)-one]: the Ki in assay [1] is less than 500 nM; on Human σ1 receptor it was greater than 1000 nM.
The corresponding values for `CCCC(c1nc2ccc(Br)cc2c(=O)n1CC)N1CCNCC(C)(C)C1` (centres unmarked) [Example 28, 6-bromo-2-(1-(6,6-dimethyl-1,4-diazepan-1-yl)butyl)-3-ethylquinazolin-4(3H)-one] are 500 to 5000 nM and 500 to 1000 nM.
The corresponding values for `CCCC(c1nc2cc(F)c(F)cc2c(=O)n1CC)N1CCCN(C)CC1` (centres unmarked) [Example 29, 3-ethyl-6,7-difluoro-2-(1-(4-methyl-1,4-diazepan-1-yl)butyl)quinazolin-4(3H)-one] are less than 500 nM and 500 to 1000 nM.
On to `CCCC(c1nc2ccc(Br)cc2c(=O)n1CC)N1CCN(C)CC(C)(C)C1` (centres unmarked) [Example 30, 6-bromo-3-ethyl-2-(1-(4,6,6-trimethyl-1,4-diazepan-1-yl)butyl)quinazolin-4(3H)-one], for which the Ki is greater than 5000 nM in assay [1] and greater than 1000 nM on Human σ1 receptor.
The corresponding values for `CCCC(c1nc2cc(Br)c(F)cc2c(=O)n1CCC)N1CCCN(C)CC1` (centres unmarked) [Example 31, 7-bromo-6-fluoro-2-(1-(4-methyl-1,4-diazepan-1-yl)butyl)-3-propylquinazolin-4(3H)-one] are less than 500 nM and 500 to 1000 nM.
In the case of `CCCC(c1nc2cc(Br)c(F)cc2c(=O)n1CC)N1CCCN(C)CC1` (centres unmarked) [Example 33, 7-bromo-3-ethyl-6-fluoro-2-(1-(4-methyl-1,4-diazepan-1-yl)butyl)quinazolin-4(3H)-one], the Ki (in assay [1]; at Human σ1 receptor) was less than 500 nM in each case.
On to `CCCC(c1nc2cc(F)c(Br)cc2c(=O)n1CCC)N1CCCNCC1` (centres unmarked) [Example 34, 2-(1-(1,4-diazepan-1-yl)butyl)-6-bromo-7-fluoro-3-propylquinazolin-4(3H)-one], for which the Ki in assay [1] was less than 500 nM; on Human σ1 receptor, greater than 1000 nM.
For `CCC[C@H](c1nc2ccc(Br)cc2c(=O)n1CC)N1CCN(C)C[C@@H](C)C1` [Example 35, 6-bromo-2-((R)-1-((R)-4,6-dimethyl-1,4-diazepan-1-yl)butyl)-3-ethylquinazolin-4(3H)-one], the Ki in assay [1] was less than 500 nM; on Human σ1 receptor it was greater than 1000 nM.
The corresponding values for `CCC[C@H](c1nc2ccc(Br)cc2c(=O)n1CC)N1CCN(C)C[C@H](C)C1` [Example 36, 6-bromo-2-((R)-1-((S)-4,6-dimethyl-1,4-diazepan-1-yl)butyl)-3-ethylquinazolin-4(3H)-one] are less than 500 nM and 500 to 1000 nM.
In the case of `CCC[C@@H](c1nc2ccc(Br)cc2c(=O)n1CC)N1CCN(C)C[C@H](C)C1` [Example 37, 6-bromo-2-((S)-1-((S)-4,6-dimethyl-1,4-diazepan-1-yl)butyl)-3-ethylquinazolin-4(3H)-one], the Ki in assay [1] is greater than 5000 nM; at Human σ1 receptor it was greater than 1000 nM.
The corresponding values for `CCC[C@@H](c1nc2ccc(Br)cc2c(=O)n1CC)N1CCN(C)C[C@@H](C)C1` [Example 38, 6-bromo-2-((S)-1-((R)-4,6-dimethyl-1,4-diazepan-1-yl)butyl)-3-ethylquinazolin-4(3H)-one] are greater than 5000 nM and greater than 1000 nM.
The corresponding values for `CCCC(c1nc2cc(C)c(Br)cc2c(=O)n1CC)N1CCCN(C)CC1` (centres unmarked) [Example 39, 6-bromo-3-ethyl-7-methyl-2-(1-(4-methyl-1,4-diazepan-1-yl)butyl)quinazolin-4(3H)-one] are less than 500 nM and 500 to 1000 nM.
In the case of `CCCC(c1nc2c(F)cc(Br)cc2c(=O)n1CC)N1CCCN(C)CC1` (centres unmarked) [Example 40, 6-bromo-3-ethyl-8-fluoro-2-(1-(4-methyl-1,4-diazepan-1-yl)butyl)quinazolin-4(3H)-one], the Ki was less than 500 nM in assay [1] and 500 to 1000 nM on Human σ1 receptor.
`CCCC(c1nc2ccc(Br)c(C)c2c(=O)n1CC)N1CCCNCC1` (centres unmarked) [Example 41, 2-(1-(1,4-diazepan-1-yl)butyl)-6-bromo-3-ethyl-5-methylquinazolin-4(3H)-one]: the results for the Ki (in assay [1]; on Human σ1 receptor) were greater than 5000 nM and greater than 1000 nM, respectively.
The corresponding values for `CCCC(c1nc2ccc(Br)cc2c(=O)n1CC)N1CCN(C)CC(F)(F)C1` (centres unmarked) [Example 42, 6-bromo-2-(1-(6,6-difluoro-4-methyl-1,4-diazepan-1-yl)butyl)-3-ethylquinazolin-4(3H)-one] are greater than 5000 nM and greater than 1000 nM.
With `CCCC(c1nc2ccc(F)cc2c(=O)n1CC(C)C)N1CCCN(C)CC1` (centres unmarked) [Example 43, 6-fluoro-3-isobutyl-2-(1-(4-methyl-1,4-diazepan-1-yl)butyl)quinazolin-4(3H)-one], the Ki (in assay [1]; at Human σ1 receptor) was less than 500 nM in each case.
With `CCCC(c1nc2cc(C)c(Br)cc2c(=O)n1CC)N1CCCNCC1` (centres unmarked) [Example 44, 2-(1-(1,4-diazepan-1-yl)butyl)-6-bromo-3-ethyl-7-methylquinazolin-4(3H)-one], the Ki in assay [1] is less than 500 nM; at Human σ1 receptor it was greater than 1000 nM.
The corresponding values for `CCCC(c1nc2cc(F)c(F)cc2c(=O)n1CC)N1CCCNCC1` (centres unmarked) [Example 45, 2-(1-(1,4-diazepan-1-yl)butyl)-3-ethyl-6,7-difluoroquinazolin-4(3H)-one] are less than 500 nM and greater than 1000 nM.
`CCCC(c1nc2cc(F)c(F)cc2c(=O)n1CC)N1CCCN(CC)CC1` (centres unmarked) [Example 46, 3-ethyl-2-(1-(4-ethyl-1,4-diazepan-1-yl)butyl)-6,7-difluoroquinazolin-4(3H)-one]: the Ki (in assay [1]; on Human σ1 receptor) was less than 500 nM each time.
As to `CCCC(c1nc2ccc(Br)c(C)c2c(=O)n1CC)N1CCCN(CC)CC1` (centres unmarked) [Example 47, 6-bromo-3-ethyl-2-(1-(4-ethyl-1,4-diazepan-1-yl)butyl)-5-methylquinazolin-4(3H)-one], the values for the Ki (in assay [1]; on Human σ1 receptor) were 500 to 5000 nM and less than 500 nM, respectively.
The corresponding values for `CCCC(c1nc2cc(C)c(Br)cc2c(=O)n1CC)N1CCCN(CC)CC1` (centres unmarked) [Example 48, 6-bromo-3-ethyl-2-(1-(4-ethyl-1,4-diazepan-1-yl)butyl)-7-methylquinazolin-4(3H)-one] are less than 500 nM and less than 500 nM.
The corresponding values for `CCCC(c1nc2c(Cl)cc(Br)cc2c(=O)n1CC)N1CCCN(C)CC1` (centres unmarked) [Example 49, 6-bromo-8-chloro-3-ethyl-2-(1-(4-methyl-1,4-diazepan-1-yl)butyl)quinazolin-4(3H)-one] are greater than 5000 nM and 500 to 1000 nM.
The corresponding values for `CCCC(c1nc2ccc(F)cc2c(=O)n1CC(C)C)N1CCCN(CC)CC1` (centres unmarked) [Example 50, 2-(1-(4-ethyl-1,4-diazepan-1-yl)butyl)-6-fluoro-3-isobutylquinazolin-4(3H)-one] are less than 500 nM and less than 500 nM.
With `CCCC(c1nc2ccc(Br)c(F)c2c(=O)n1CC)N1CCCN(CC)CC1` (centres unmarked) [Example 52, 6-bromo-3-ethyl-2-(1-(4-ethyl-1,4-diazepan-1-yl)butyl)-5-fluoroquinazolin-4(3H)-one], the figures for the Ki (in assay [1]; on Human σ1 receptor) were 500 to 5000 nM and less than 500 nM, respectively.
